Source: patent US12396997B2, “Methods of treatment with an iboga alkaloid” (priority 2022, dated 2025)
Several values for one entry are separate records, joined by “and”; a condition that tells them apart may be missing. Equal values may be shown once. Entries after “also recorded” stand apart in the source; their conditions may differ.

Legend:
[1] = tested on: N-methyl-D-aspartate, kappa and mu opioid, sigma-1 and -2, nicotinic acetylcholine, serotonin transporter, and dopamine transporter; conditions: literature; cited from earlier work
[2] = tested on: special operations veterans with history of TBI; experiment: World Health Organization Disability Assessment Scale 2.0 (WHODAS 2.0); format: in vivo, human; conditions: for WHODAS 2.0 Subscale Self Care: baseline 5.2% ± 9.2%; for WHODAS 2.0 Subscale Mobility: baseline 14.7% ± 15.7%
Procedure: (§1) Thirty, male, navy seal or army special forces veterans, ages 33-58 years (mean 44.5 years), were enrolled. Of the 30 participants, 27 were Caucasian, 1 was Hispanic and 2 were Native American. Body mass index was between 17-35 kg/m^2.
(§2) With subjects in the fasting state, an intravenous infusion of 1 gram of magnesium sulfate was administered 1-2 hours prior to treatment. […] Medical staff (MD, RN, or EMT) were onsite at a ratio of at least 1 staff per 2 patients throughout treatment for monitoring and management, but no specific coaching or psychological support was provided during treatment.
(§3) Post treatment, each subject was assessed four days after treatment, one month after treatment, and, if willing, one year after treatment. The post-treatment assessments conducted at four days and at one month after treatment included neuropsychological testing, measures of PTSD, depression, anxiety, mystical experiences, functional imaging and EEG. Post-treatment assessments conducted at one year after treatment included PTSD, depression, and anxiety measures.
World Health Organization Disability Assessment Scale 2.0 (WHODAS 2.0) was used as a measure of function. WHODAS was used to assess the impact of health conditions across six life domains (cognition, mobility, self-care, interpersonal, life activities, and community participation) and it is sensitive to change over time (Gold, L. H., J. Am. Acad. Psychiatry Law 42, 9 (2014). Each item in the assessment is rated on a scale ranging from no problems to extreme problems (Üstün, T. B. et al., Measuring health and disability: Manual for WHO disability assessment schedule WHODAS 2.0. (World Health Organization, 2010)). To capture inter-individual variability in disability the WHODAS complex scoring method was used. Raw scores were converted to a metric ranging from 0 (no disability) to 100 (full disability), by calculating the ratio of the participant's score relative to the maximum possible score in each domain as well as to the total score (Id.). A score of 20%-39% was considered mild, 40%-59% was moderate, 60%-79% was moderate-severe and 80%-100% was severe. Scores from baseline were compared to scores from one-month post treatment.

[3] = tested on: brain-derived neurotrophic factor (BDNF) and glial cell line-derived neurotrophic factor (GDNF); conditions: literature; cited from earlier work
[4] = tested on: special operations veterans with history of TBI; experiment: Predicted brain age from MRI with brain age model; format: in vivo, human; conditions: one-month post treatment; FIG. 9D
Description: A predictive model of normal aging defined using machine learning in healthy individuals, based on magnetic resonance imaging-derived estimates of gray matter and white matter (Id.) was applied to the MRI images from the subjects enrolled in the study of Example 1. […] There was a significant reversal of brain age from baseline to one month after treatment. The mean decrease in brain age was 1.3 years (corrected p=0.03).
At baseline, the brain age estimate for the 24 subjects was 40.89 years. […] The average decrease in brain age from baseline one month after treatment was 1.4 years.

[5] = orally administered to humans; cited from earlier work
[6] = tested on: special operations veterans with history of TBI; experiment: CAPS-5 (Clinician-administered PTSD Scale for DSM-5); format: in vivo, human
Procedure: as §1, §2
as §3, with “measures. […]” for “measures.”

[7] = tested on: special operations veterans with history of TBI; experiment: Hamilton Anxiety Rating Scale (HAM-A); format: in vivo, human
Procedure: as §1, §2
as §3, with “measures. […]” for “measures.”

[8] = tested on: special operations veterans with history of TBI; experiment: Structural T1w MRI (FreeSurfer) regional volume and cortical thickness; format: in vivo, human
Procedure: Structural imaging of the brain was also conducted on some of the subjects of Example 1. Gray matter constitutes about 40% of the brain and white matter constitutes about 60% of the brain. Gray matter contains most of the brain's neuronal cell nodes, it is fully developed once a person reaches their 20's and interprets sensor information from various parts of the body. White matter is made up of bundles which connect various gray matter areas, it develops throughout the 20's and peaks in middle age. Typical metrics analyzed in anatomical (T1-weighted. “T1w”) imaging include volume and/or shape of nuclei (e.g. caudate), volume and/or shape of ventricles of the brain, and cortical thickness (mm). These metrics can be used to study normal and abnormal neuroanatomy and are primarily used to quantify gray matter. A tool called FreeSurfer was applied to images for a T1w structural analysis (volume, cortical thickness) to adjust for bias, remove non-brain matter, segments by tissue, parcels the brain into standardized regions, and provides measurements of those regions. FreeSurfer measurements of whole brain volume, volume by tissue (gray, white, CSF), estimated intracranial volume (ICV), subcortical gray matter volume, cortical volume by region were done. […] In particular, analysis was done to determine if there was any loss in gray matter volume or cortical thickness, whether there was a loss in white matter volume or an increase in presence of white matter […].
The fMRI images were also inspected to determine the difference in volume in regional areas of the brain from baseline to one month after treatment. FIG. 8A is a bar graph showing the effect size of a change in volume in 47 brain regions indicated along the x-axis. […] The fMRI images were also inspected for whole brain thickness at baseline and one month after treatment. […] FIG. 8B is a bar graph showing the effect size of a cortical thickness change for the brain regions indicated along the x-axis, from baseline to one month after treatment. […] The right and left parahippocampal gyrus are involved in visuospatial processing, including scene perception, navigation, and emotional contextualization. The left orbitofrontal gyrus is involved in impulse control and reward valuation. The left insular cortex is associated with both the affective-perceptual and cognitive-evaluative forms of empathy, as well as awareness of hunger, pain and fatigue. The left entorhinal cortex is a widespread network hub for memory, navigation, and perception of time.

[9] = tested on: special operations veterans with history of TBI; conditions: in vivo
cortical neuron = conditions: in vitro; literature; cited from earlier work
[10] = tested on: special operations veterans with history of TBI; experiment: Safety monitoring during and after ibogaine treatment (adverse events, QTc by ECG); format: in vivo, human
Procedure: 12 participants (40%) were treated for headache. 7 (23%) for nausea. 3 (10%) for anxiety. 2 (7%) for hypertension, and 1 (3%) for insomnia.
as §2

people = conditions: in vivo; cited from earlier work
[11] = tested on: special operations veterans with history of TBI; experiment: MADRS (Montgomery-Asberg Depression Rating Scale), incl. suicidal ideation item Q10; format: in vivo, human
Procedure: as §2, §3
MADRS testing provides an indication of depressive symptoms, CAPS-5 provides an indication of PTSD and SIGH-A provides an indication of anxiety. Collectively these overlap to provide indication of mood, concentration, sleep and tension.
The MADRS is a clinician-administered 10-item scale assessing the severity of depression symptoms. […] A total score of 0-6 indicates no depression, 7-19 mild depression, 20-34 moderate depression, 35-59 severe depression, and 60+ very severe depressive symptoms (Müller, M. J., J. Affect. Disord. 77, 255-260 (2003)).

[12] = effect size, Baseline vs One-Month
[13] = effect size, Baseline vs Post-Treatment
[14] = following treatment vs baseline

**Q.** For `CC[C@H]1CC2C[C@H]3c4[nH]c5ccc(O)cc5c4CCN(C2)C13` [noribogaine], which “Affinity for neurotransmitter receptors” value [1] is on record?
**A.** moderate-to-weak affinity

**Q.** With `CCC1CC2CC3c4[nH]c5ccc(OC)cc5c4CCN(C2)C13` (stereo not drawn) [ibogaine] as the compound, how does the “WHODAS 2.0 Subscale Self Care” value ([2]; One-Month, mean, SD 2.9%) read?
**A.** 1.0% ±

**Q.** What about the “WHODAS 2.0 Subscale Mobility” value ([2]; One-Month, mean, SD 3.3%) of the same compound?
**A.** 1.3% ±

**Q.** And the “WHODAS 2.0 Subscale Cognition” value ([2]; One-Month, mean, SD 7.9%, baseline 36.1% ± 14.6%)?
**A.** 5.0% ±

**Q.** And the “WHODAS 2.0 Subscale Interpersonal” value ([2]; One-Month, mean, SD 9.5%, baseline 32.3% ± 20.4)?
**A.** 4.8% ±

**Q.** And the “WHODAS 2.0 Subscale Community Participation” value ([2]; One-Month, mean, SD 13.1%, baseline 35.6% ± 21.1%)?
**A.** 5.9% ±

**Q.** And the “WHODAS 2.0 Subscale Life Activities” value ([2]; One-Month, mean, SD 16.2%, baseline 41.1% ± 24.8%)?
**A.** 9.1% ±

**Q.** And the “WHODAS 2.0 Subscale Self Care” value ([2]; Post-Treatment, mean, SD 4.7%)?
**A.** 1.9% ±

**Q.** And the “WHODAS 2.0 Subscale Mobility” value ([2]; Post-Treatment, mean, SD 13.5%)?
**A.** 7.2% ±

**Q.** What about the “WHODAS 2.0 Subscale Mobility, D” value [2, 12] of the same compound?
**A.** 0.83

**Q.** What about the “WHODAS 2.0 Subscale Self Care, D” value [2, 12] of the same compound?
**A.** 0.51

**Q.** And the “WHODAS 2.0 Subscale Cognition, D” value [2, 13]?
**A.** 0.96

**Q.** And the “WHODAS 2.0 Subscale Community Participation, D” value [2, 13]?
**A.** 0.53

**Q.** What about the “WHODAS 2.0 Subscale Interpersonal, D” value [2, 13] of the same compound?
**A.** 0.60

**Q.** And the “WHODAS 2.0 Subscale Life Activities, D” value [2, 13]?
**A.** 0.48

**Q.** What about the “WHODAS 2.0 Subscale Mobility, D” value [2, 13] of the same compound?
**A.** 0.53

**Q.** What about the “WHODAS 2.0 Subscale Self Care, D” value [2, 13] of the same compound?
**A.** 0.37

**Q.** And the “Transcription of neurotrophic factors BDNF and GDNF” value [3]?
**A.** increases the transcription

**Q.** What about the “Estimated brain age compared to aiTBS” value [4] of the same compound?
**A.** reducing in estimated brain age

**Q.** And the half-life [5]?
**A.** about 7.5 hours

**Q.** And the “Cohen's D on clinician rated psychiatric assessments (PTSD)” value [6, 14]?
**A.** > 2

**Q.** And the “Remission rate for comorbid PTSD” value ([6]; secondary analyses)?
**A.** around 80%

**Q.** And the “Cohen's D on clinician rated psychiatric assessments (anxiety)” value [7, 14]?
**A.** > 2

**Q.** And the “Remission rate for comorbid anxiety” value ([7]; secondary analyses)?
**A.** around 80%

**Q.** What about the “Affinity for neurotransmitter receptors” value [1] of the same compound?
**A.** moderate-to-weak affinity

**Q.** And the “White matter hypointensities (corrected for cerebral white matter)” value ([8]; baseline vs. one month post treatment, two-tailed p = 0.0789)?
**A.** Two-tailed: no significant differences

**Q.** What about the “Subcortical Gray Matter volume” value ([8]; baseline vs. one month post treatment, two-tailed p = 0.0949) of the same compound?
**A.** Two-tailed: no significant differences

**Q.** And the “Total Gray Matter volume” value ([8]; baseline vs. one month post treatment, two-tailed p = 0.4755)?
**A.** Two-tailed: no significant differences

**Q.** What about the “Cortical Gray Matter volume” value ([8]; baseline vs. one month post treatment, two-tailed p = 0.4847) of the same compound?
**A.** Two-tailed: no significant differences

**Q.** And the “Right hemisphere mean thickness” value ([8]; one month after treatment vs baseline, two-tailed)?
**A.** no significant difference

**Q.** And the “Left hemisphere mean thickness” value ([8]; one month after treatment vs baseline, two-tailed p=0.7146)?
**A.** no significant difference

**Q.** And the “Declines across any performance domain” value [9]?
**A.** No declines

**Q.** And the “Executive functioning effect size D” value [9]?
**A.** 0.31-1.22

**Q.** And the “Performance change in language (semantic fluency)” value [9]?
**A.** No significant performance changes

**Q.** What about the “Phonemic Fluency (D-KEFS Verbal Fluency)” value [9] of the same compound?
**A.** 64.0 ± 10.1 T score

**Q.** And the “Processing speed effect size D” value [9]?
**A.** 0.97-1.34

**Q.** What about the “Reaction Time (CPT-3 Reaction Time)” value [9] of the same compound?
**A.** 44.1 ± 6.8 T score and 46.4 ± 8.1 T score

**Q.** What about the “Slowing of reaction time effect size D” value [9] of the same compound?
**A.** 0.29-0.52

**Q.** What about the “Sustained Attention (CPT-3 Hit Reaction Time Block Change)” value [9] of the same compound?
**A.** 50.8 ± 7.9 T score and 51.2 ± 7.7 T score

**Q.** And the “Sustained attention accuracy (detection) effect size D” value [9]?
**A.** 0.86-1.05

**Q.** And the “Verbal Memory (HVLT-R)” value [9]?
**A.** 49.0 ± 9.2 T score

**Q.** What about the “Working Memory (WMI (WAIS-IV))” value ([9]; iv) of the same compound?
**A.** 57.0 ± 9.5 T score

**Q.** What about the “Cortical neuron dendritic arbor complexity” value (cortical neuron) of the same compound?
**A.** increases cortical neuron dendritic arbor complexity

**Q.** And the “Unexpected or serious treatment-emergent side effects / adverse events” value ([10]; 30 participants, oral ibogaine 12.1±1.2 mg/kg with iv magnesium sulfate, 1.2 mg/kg)?
**A.** no unexpected or serious treatment-emergent side effects; also recorded: no serious or unexpected adverse events

**Q.** What about the “Concerning prolongation of QTc” value ([10]; continuous 5-lead ECG) of the same compound?
**A.** no instances of a concerning prolongation of QTc

**Q.** And the “Participants treated for insomnia” value ([10]; during oneirogenic effects, 1 participant)?
**A.** 3%

**Q.** And the “Participants treated for hypertension” value ([10]; during oneirogenic effects, 2 participants)?
**A.** 7%

**Q.** And the “Participants treated for anxiety” value ([10]; during oneirogenic effects, 3 participants)?
**A.** 10%

**Q.** And the “Participants treated for nausea” value ([10]; during oneirogenic effects, 7 participants)?
**A.** 23%

**Q.** And the “Participants treated for headache” value ([10]; during oneirogenic effects, 12 participants)?
**A.** 40%

**Q.** And the “People who may suffer cardiac arrest when treated” value (people)?
**A.** Approximately 1 in 300

**Q.** And the “Suicidal Ideation (MADR Q10), % Reporting” value ([11]; 1-mo. post, mild TBI, N 28, baseline 46%)?
**A.** 7%

**Q.** And the “Cohen's D on clinician rated psychiatric assessments (depression)” value [11, 14]?
**A.** > 2

**Q.** And the “Remission rate for comorbid depression” value ([11]; secondary analyses)?
**A.** around 80%
